For data set [1], the target named is T1, Varroa mite proctolin receptor (VdProctR) (Varroa destructor, UniProt A0A7T1TE40). Description: Receptor activity assay (aequorin luminescence), CHO cells transiently expressing the receptor, first set of ligands. The following applies: for potency of double-replacement analog over the corresponding single Y2 replacement analog (factor): 2338 vs 2333, 2337 vs 2329; for EC50: cells with transient expression of the receptor; for Fold change: EC50 relative to proctolin, first set (transient expression); for efficacy (maximal response) compared with proctolin: activities at 1 μM and 10 μM. Type of data set: cell-based. Here is the method:
(§1) Approximately thirty hours after transfection, the cells were collected and preincubated with coelenterazine h for the functional assay, as previously described[30],[31],[52]. The ligands in serial dilutions were loaded into 96-well opaque plates. Cells treated with coelenterazine h were injected into each well on an Orion microplate luminometer (Berthold) luminescent plate reader. The luminescence was measured for 20 s immediately after the cell injections. Data analyses were performed to determine the accumulated luminescence value for 20 s after extraction of blank-well luminescence. […] The three biological replications were regressed for the dose–response curves with 95% confidence intervals (Table 1). For the tests of the second set of ligands, we used the cell line that stably expressed VdProctR, which were selected by Zeocin for 5 passages.

Data set [2] has as its target T1, Varroa mite proctolin receptor (VdProctR). Description: Receptor activity assay, CHO cell line stably expressing the receptor, second set of ligands. Type of data set: cell-based. The following applies: for Fold change: EC50 relative to proctolin, second set (stable expression). The protocol:
as §1

For data set [3], the system named is proctolin myotropic assays in cockroach, locust and beetle species. The following applies: cited from earlier work.
The subject of the next data set is worker honey bee. Description: Acute toxicity on worker honey bee by injection, 24 h. The following applies: 50 nL of 200 µM (10 pmol), 24 h observation, n = 4. The protocol:
For honey bee (Apis mellifera) assays, honey bee workers from healthy colonies were collected from Honeybee Valley of Ghent University, Belgium, and maintained in cages on sugar dough and water, under standardized conditions of 28–30 °C, 60–65% air humidity and continuous darkness. The colony were maintained with a periodic sanitary control that the honeybee hives are free of pathogens, diseases and viruses. There was no Varroa mite infection in the honeybee hives at the moment of collecting the workers for the assays. […] This was realized by injecting a volume of 50 nL of a concentration of the compound of 200 µM. Potential effects on survival were scored at 24 h after injection. […] This test was done with the following compounds were tested: 2439, 2334, 2336, Ac-2442 and controls. Subsequently, working solutions were freshly prepared prior to the bioassays by diluting the stock with distilled water to the required concentration.

Values joined by “and” are separate entries in the source; they are usually repeats but may differ in a detail not shown here. Equal values may be shown once. Where a SMILES comes first, the peptide text is derived from it. Where no end group is shown, it is not given here. [ ]: non-standard residue; d: D form. Phe(4-NO2) = N[C@@H](Cc1ccc([N+](=O)[O-])cc1)C(=O)O; Oic = O=C(O)[C@@H]1C[C@@H]2CCCC[C@@H]2N1; Phe(4-Cl) = N[C@@H](Cc1ccc(Cl)cc1)C(=O)O; Phe(4-F) = N[C@@H](Cc1ccc(F)cc1)C(=O)O; Hyp = O=C(O)[C@@H]1C[C@@H](O)CN1; β3hF = N[C@H](CC(=O)O)Cc1ccccc1; β3hL = CC(C)C[C@H](N)CC(=O)O; β3hP = O=C(O)C[C@@H]1CCCN1

The values that follow come from publication PMC9568543, “Bee-safe peptidomimetic acaricides achieved by comparative genomics” (Scientific Reports, 2022).

In general, EC50 refers to the concentration that produces a half-maximal response.

T1 sequence (A0A7T1TE40 entry or part of it): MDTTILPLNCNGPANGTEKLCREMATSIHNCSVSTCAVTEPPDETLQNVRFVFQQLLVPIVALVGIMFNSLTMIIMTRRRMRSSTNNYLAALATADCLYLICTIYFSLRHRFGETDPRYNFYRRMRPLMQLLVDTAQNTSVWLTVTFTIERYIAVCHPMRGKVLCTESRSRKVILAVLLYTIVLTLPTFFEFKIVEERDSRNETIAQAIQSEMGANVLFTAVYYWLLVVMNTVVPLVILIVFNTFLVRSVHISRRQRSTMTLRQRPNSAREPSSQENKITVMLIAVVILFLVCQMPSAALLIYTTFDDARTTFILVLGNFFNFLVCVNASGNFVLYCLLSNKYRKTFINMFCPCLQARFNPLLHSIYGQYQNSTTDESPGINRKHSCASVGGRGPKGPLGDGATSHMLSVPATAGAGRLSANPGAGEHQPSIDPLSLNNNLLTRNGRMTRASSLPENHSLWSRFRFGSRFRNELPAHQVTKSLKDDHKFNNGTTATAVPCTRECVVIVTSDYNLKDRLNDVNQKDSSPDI

Regarding `CC(C)C[C@H](NC(=O)C[C@H](Cc1ccccc1)NC(=O)[C@@H](N)CCCNC(=N)N)C(=O)N1C[C@H](O)C[C@H]1C(=O)N[C@H](C(=O)O)[C@@H](C)O` [Analog 2338, R[β3F]L[HyP]T] (H-R[β3hF]L[Hyp]T-OH), in data set [1], the “efficacy (maximal response)” value is given as “full efficacy”, the “potency of double-replacement analog over the corresponding single Y2 replacement analog (factor)” value is on record as 8 and the Fold change came out at 136.1. The EC50 in data set [1] (EC50, first set of peptidomimetics) was 33 nM and 33.2 nM. As to `CC(C)C[C@H](NC(=O)[C@H](Cc1ccc(O)cc1)NC(=O)[C@@H](N)CCCNC(=N)N)C(=O)N1CCC[C@H]1C(=O)N[C@@H](C(=O)O)[C@H](C)O` [Analog 2326, RYLP[dT]] (H-RYLP[dT]-OH; N-terminus and C-terminus assumed), the Fold change in data set [1] was found to be 7654.8.

Take `CC(=O)N[C@@H](CCCNC(=N)N)C(=O)N[C@@H](Cc1ccc(Cl)cc1)C(=O)N[C@@H](CC(C)C)C(=O)N1C[C@H](O)C[C@H]1C(=O)N[C@H](C(=O)O)[C@@H](C)O` [Ac-2443, Ac-R[Phe(4-Cl)]L[HyP]T] (Ac-R[Phe(4-Cl)]L[Hyp]T-OH): in data set [2], the Fold change worked out at 37.5. For the compound `CC(C)C[C@H](NC(=O)[C@@H](Cc1ccc(O)cc1)NC(=O)[C@@H](N)CCCNC(=N)N)C(=O)N1C[C@H](O)C[C@H]1C(=O)N[C@H](C(=O)O)[C@@H](C)O` [Analog 2337, R[dY]L[HyP]T] (H-R[dY]L[Hyp]T-OH; N-terminus and C-terminus assumed), in data set [1], the “efficacy (maximal response)” value is “full efficacy”, the “potency of double-replacement analog over the corresponding single Y2 replacement analog (factor)” value was 4 and the Fold change was 143.5. In data set [1], RYGLPT [Analog G3, RYGLPT] showed a Fold change of 91508.8.

`CC(C)C[C@@H](CC(=O)N1CCC[C@H]1C(=O)N[C@H](C(=O)O)[C@@H](C)O)NC(=O)[C@H](Cc1ccc(O)cc1)NC(=O)[C@@H](N)CCCNC(=N)N` [Analog 2332, RY[β3L]PT] (H-RY[β3hL]PT-OH) gave a Fold change in data set [1] of 661.7. Consider “RYL[β3P]T [Analog 2331] (H-RYL[β3hP]T-OH; N-terminus and C-terminus assumed; SMILES CC(C)C[C@H](NC(=O)[C@H](Cc1ccc(O)cc1)NC(=O)[C@@H](N)CCCNC(=N)N)C(=O)N1CCC[C@H]1CC(=O)N[C@H](C(=O)O)[C@@H](C)O)”, for which the “efficacy (maximal response) compared with proctolin” value (from here on “efficacy … compared with proctolin”) in data set [1] is on record as “higher than that of proctolin”. `CC(=O)N[C@@H](CCCNC(=N)N)C(=O)N[C@@H](Cc1ccc(F)cc1)C(=O)N[C@@H](CC(C)C)C(=O)N1C[C@H](O)C[C@H]1C(=O)N[C@H](C(=O)O)[C@@H](C)O` [Ac-2441, Ac-R[Phe(4-F)]L[HyP]T] (Ac-R[Phe(4-F)]L[Hyp]T-OH; N-terminus and C-terminus assumed) gave a Fold change in data set [2] of 61.5. The compound RGYLPT [Analog G2, RGYLPT] registered a Fold change in data set [1] of 71648.2. On the same count and under the same terms, with RYLPGT [Analog G5, RYLPGT] the figure was 3095.5.

In data set [2], `CC(C)C[C@H](NC(=O)[C@H](Cc1ccc(F)cc1)NC(=O)[C@@H](N)CCCNC(=N)N)C(=O)N1CCC[C@H]1C(=O)N[C@H](C(=O)O)[C@@H](C)O` [Analog 2438, R[Phe(4-F)]LPT] (H-R[Phe(4-F)]LPT-OH) returned an EC50 of 16.7 nM and a Fold change of 0.7. The compound `CC(C)C[C@H](NC(=O)[C@@H](Cc1ccc(O)cc1)NC(=O)[C@@H](N)CCCNC(=N)N)C(=O)N1CCC[C@H]1C(=O)N[C@H](C(=O)O)[C@@H](C)O` [Analog 2329, R[dY]LPT] (H-R[dY]LPT-OH; N-terminus and C-terminus assumed) had a Fold change in data set [1] of 824.5. As to `CC(C)C[C@H](NC(=O)[C@H](Cc1ccc(O)cc1)NC(=O)[C@H](N)CCCNC(=N)N)C(=O)N1CCC[C@H]1C(=O)N[C@H](C(=O)O)[C@@H](C)O` [Analog 2330, [dR]YLPT] (H-[dR]YLPT-OH; N-terminus and C-terminus assumed), in data set [1], the “efficacy … compared with proctolin” value was “higher than that of proctolin”. The EC50 in data set [1] (first set of peptidomimetics, listed as R1 replacement by dR, read-out: EC50) worked out at 5.62 nM. Moreover, the “activity in earlier in vivo myotropic bioassays” value in data set [3] is listed as “no activity”. As to RYLPTG [Analog G6, RYLPTG], in data set [1], the Fold change turned out to be 4088.2 and the “efficacy … compared with proctolin” value was “higher than that of proctolin”. On to `CC(C)C[C@H](NC(=O)[C@H](Cc1ccc(Cl)cc1)NC(=O)[C@@H](N)CCCNC(=N)N)C(=O)N1CCC[C@H]1C(=O)N[C@H](C(=O)O)[C@@H](C)O` [Analog 2440, R[Phe(4-Cl)]LPT] (H-R[Phe(4-Cl)]LPT-OH), for which, in data set [2], the midpoint of the response, the EC50, lay at 5.73 nM and the Fold change is on record as 0.2. In data set [1], `CC(C)C[C@H](NC(=O)[C@H](Cc1ccc(O)cc1)NC(=O)[C@@H](N)CCCNC(=N)N)C(=O)N1CCC[C@@H]1C(=O)N[C@H](C(=O)O)[C@@H](C)O` [Analog 2327, RYL[dP]T] (H-RYL[dP]T-OH; N-terminus and C-terminus assumed) yielded a Fold change of 1881.1. `CC(C)C[C@H](NC(=O)[C@H](Cc1ccc([N+](=O)[O-])cc1)NC(=O)[C@@H](N)CCCNC(=N)N)C(=O)N1CCC[C@H]1C(=O)N[C@H](C(=O)O)[C@@H](C)O` [Analog 2439, R[Phe(4-NO2)]LPT] (H-R[Phe(4-NO2)]LPT-OH): the “negative effects after injection into thorax” value in the data set with worker honey bee is listed as “did not show any negative effects”. In data set [2], `CC(C)C[C@H](NC(=O)[C@H](Cc1ccc(F)cc1)NC(=O)[C@@H](N)CCCNC(=N)N)C(=O)N1C[C@H](O)C[C@H]1C(=O)N[C@H](C(=O)O)[C@@H](C)O` [Analog 2441, R[Phe(4-F)]L[HyP]T] (H-R[Phe(4-F)]L[Hyp]T-OH; N-terminus and C-terminus assumed) came in with a Fold change of 0.7. Also, in data set [2] (second set, stable expression), the “activity compared with proctolin” value is “higher activity than proctolin”. For the compound `CC(C)C[C@@H](NC(=O)[C@H](Cc1ccc(O)cc1)NC(=O)[C@@H](N)CCCNC(=N)N)C(=O)N1CCC[C@H]1C(=O)N[C@H](C(=O)O)[C@@H](C)O` [Analog 2328, RY[dL]PT] (H-RY[dL]PT-OH; N-terminus and C-terminus assumed), the Fold change in data set [1] is reported as 558.8. With “RYL[HyP]T [Analog 2334] (H-RYL[Hyp]T-OH; N-terminus and C-terminus assumed; SMILES CC(C)C[C@H](NC(=O)[C@H](Cc1ccc(O)cc1)NC(=O)[C@@H](N)CCCNC(=N)N)C(=O)N1C[C@H](O)C[C@H]1C(=O)N[C@H](C(=O)O)[C@@H](C)O)”, in data set [1], the “efficacy … compared with proctolin” value was “higher than that of proctolin”. `CC(C)C[C@H](NC(=O)C[C@H](Cc1ccccc1)NC(=O)[C@@H](N)CCCNC(=N)N)C(=O)N1CCC[C@H]1C(=O)N[C@H](C(=O)O)[C@@H](C)O` [Analog 2333, R[β3F]LPT] (H-R[β3hF]LPT-OH) showed a Fold change in data set [1] of 572.0. On to `CC(C)C[C@H](NC(=O)[C@@H](Cc1ccc(O)cc1)NC(=O)[C@@H](N)CCCNC(=N)N)C(=O)N1[C@H](C(=O)N[C@H](C(=O)O)[C@@H](C)O)C[C@@H]2CCCC[C@@H]21` [Analog 2340, R[dY]L[Oic]T] (H-R[dY]L[Oic]T-OH), for which the Fold change in data set [1] came to 529.7. Same read-out and setting: with GRYLPT [Analog G1, GRYLPT] the figure was 199.7; with RYLGPT [Analog G4, RYLGPT], 5444.9. As to `CC(=O)N[C@@H](CCCNC(=N)N)C(=O)N[C@@H](Cc1ccc([N+](=O)[O-])cc1)C(=O)N[C@@H](CC(C)C)C(=O)N1C[C@H](O)C[C@H]1C(=O)N[C@H](C(=O)O)[C@@H](C)O` [Ac-2442, Ac-R[Phe(4-NO2)]L[HyP]T] (Ac-R[Phe(4-NO2)]L[Hyp]T-OH), the “negative effects after injection into thorax” value in the data set with worker honey bee was “did not show any negative effects”.
